Measured values from patent US9468212B2, “Antifungal compositions” (DSM IP ASSETS B.V., priority 2013, dated 2016).
Values joined by “and” are separate entries in the source; they are usually repeats but may differ in a detail not shown here. Identical values can stand only once.

Key:
[1] = tested on: mould; assay: Treatment of pineapples: mould incidence on the pineapple rinds after storage (Example 11); format: in vivo; conditions: 200 ppm natamycin, 250 ppm fludioxonil or both, 28 days of storage (21 days at 7.5° C., 7 days at 18 to 20° C.)
Text: In this experiment pineapples were selected from a packing plant located in Costa Rica. These pineapples were selected based on uniformity in color and size. Furthermore, they were free from visual mold growth or any other visual damage caused by plagues or diseases.
The surface of the pineapples was first disinfected by immersion of the fruits for one minute in a solution comprising 150 ppm sodium hypochlorite. Next, the fruits were dried and thereafter the antimicrobial compositions were applied on the fruits using a modified watering can. This shower, to simulate the wax cascade used in pineapple packing plants, covered the rind of the fruits with a thin film of wax. The crown of the pineapple was not treated. […]
After 28 days, the mould incidence on the pineapple rinds was assessed using the following method. The number of pineapples with visual mould incidence on the rind per total of 40 pineapples was counted for all compositions. Subsequently, the antifungal activity (in %) of the individual and combined active ingredients (compositions B, C and D) was determined by calculating the reduction in mould incidence observed on the pineapple rind compared to composition A. The observed antifungal activity of composition D was compared to the expected antifungal activity of composition D according to the Colby method (Colby, 1967) as described in Example 5.

[2] = tested on: Botrytis cinerea; assay: Treatment of strawberries: wounded, inoculated with Botrytis cinerea, dipped in antifungal composition (Examples 5, 6); format: in vivo; conditions: 20° C.
Description: Twelve fresh, organic strawberries were used per treatment. Each strawberry was wounded with a 0.5 mm long cut and each wound was inoculated with 10 μl of a Botrytis cinerea suspension containing 1×10^5 of spores/ml. After a 3-hour incubation period at 20° C., each strawberry was dipped individually for 1 minute in a freshly prepared aqueous antifungal composition comprising either 500 ppm natamycin (DSM Food Specialties, Delft, The Netherlands), 500 ppm fludioxonil or both. Each antifungal composition also comprised 3.2% (w/w) beeswax, 0.8% (w/w) glycerol, 0.7% (w/w) polyoxyethylene sorbitan monostearate (Tween 60), 0.1% (w/w) polyoxyethylene sorbitan monooleate (Tween 80), 0.05% (w/w) methylhydroxyethyl-cellulose (MH EC), 0.03% (w/w) anti-foaming agent, 0.02% (w/w) xanthan gum, 0.02% (w/w) citric acid, 0.01% (w/w) lactic acid and 0.01% potassium sorbate. A composition without natamycin or fludioxonil was used as control. […] The treated strawberries were incubated in a closed box in the dark at 20° C. for 19 days.
The expected antifungal activity (E in %) of the combined antifungal composition comprising both active ingredients was calculated according to the Colby equation (Colby, 1967): E=X+Y−[(X·Y)/100] wherein X and Y are the observed antifungal activities (in %) of the individual active ingredients X and Y, respectively.
The experiment was conducted as described in Example 5, except for the fact that each wounded and inoculated strawberry was dipped individually for 1 minute in a freshly prepared aqueous antifungal composition comprising either 250 ppm natamycin (DSM Food Specialties, Delft, The Netherlands), 250 ppm fludioxonil or both. During incubation, the treated strawberries were assessed on mould growth according to the two methods described in Example 5.

[3] = 250 ppm natamycin, 250 ppm fludioxonil or both, 6 days
[4] = 250 ppm natamycin, 250 ppm fludioxonil or both, 7 days
[5] = 250 ppm natamycin, 250 ppm fludioxonil or both, 8 days
[6] = 250 ppm natamycin, 250 ppm fludioxonil or both, 9 days
[7] = 250 ppm natamycin, 250 ppm fludioxonil or both, 10 days
[8] = 250 ppm natamycin, 250 ppm fludioxonil or both, 11 days
[9] = 250 ppm natamycin, 250 ppm fludioxonil or both, 12 days
[10] = 250 ppm natamycin, 250 ppm fludioxonil or both, 13 days
[11] = 250 ppm natamycin, 250 ppm fludioxonil or both, 14 days
[12] = 250 ppm natamycin, 250 ppm fludioxonil or both, 15 days
[13] = 250 ppm natamycin, 250 ppm fludioxonil or both, 16 days
[14] = 250 ppm natamycin, 250 ppm fludioxonil or both, 18 days
[15] = 250 ppm natamycin, 250 ppm fludioxonil or both, 19 days
[16] = 250 ppm natamycin, 250 ppm fludioxonil or both, Day 6-8
[17] = 250 ppm natamycin, 250 ppm fludioxonil or both, Day 9
[18] = 250 ppm natamycin, 250 ppm fludioxonil or both, Day 10
[19] = 250 ppm natamycin, 250 ppm fludioxonil or both, Day 11
[20] = 250 ppm natamycin, 250 ppm fludioxonil or both, Day 12
[21] = 250 ppm natamycin, 250 ppm fludioxonil or both, Day 13
[22] = 250 ppm natamycin, 250 ppm fludioxonil or both, Day 14
[23] = 250 ppm natamycin, 250 ppm fludioxonil or both, Day 15
[24] = 500 ppm natamycin, 500 ppm fludioxonil or both, 7 days
[25] = 500 ppm natamycin, 500 ppm fludioxonil or both, 8 days
[26] = 500 ppm natamycin, 500 ppm fludioxonil or both, 9 days
[27] = 500 ppm natamycin, 500 ppm fludioxonil or both, 10 days
[28] = 500 ppm natamycin, 500 ppm fludioxonil or both, 11 days
[29] = 500 ppm natamycin, 500 ppm fludioxonil or both, 12 days
[30] = 500 ppm natamycin, 500 ppm fludioxonil or both, 13 days
[31] = 500 ppm natamycin, 500 ppm fludioxonil or both, 14 days
[32] = 500 ppm natamycin, 500 ppm fludioxonil or both, 15 days
[33] = 500 ppm natamycin, 500 ppm fludioxonil or both, 16 days
[34] = 500 ppm natamycin, 500 ppm fludioxonil or both, 18 days
[35] = 500 ppm natamycin, 500 ppm fludioxonil or both, 19 days
[36] = 500 ppm natamycin, 500 ppm fludioxonil or both, Day 7
[37] = 500 ppm natamycin, 500 ppm fludioxonil or both, Day 8
[38] = 500 ppm natamycin, 500 ppm fludioxonil or both, Day 9
[39] = 500 ppm natamycin, 500 ppm fludioxonil or both, Day 10-11
[40] = 500 ppm natamycin, 500 ppm fludioxonil or both, Day 12
[41] = 500 ppm natamycin, 500 ppm fludioxonil or both, Day 13
[42] = 500 ppm natamycin, 500 ppm fludioxonil or both, Day 14
[43] = 500 ppm natamycin, 500 ppm fludioxonil or both, Day 15
[44] = 500 ppm natamycin, 500 ppm fludioxonil or both, Day 16-17

Q: Which results are given for `C[C@@H]1C/C=C/C=C/C=C/C=C/[C@H](O[C@@H]2O[C@H](C)[C@@H](O)[C@H](N)[C@@H]2O)C[C@@H]2O[C@](O)(C[C@@H](O)C[C@H]3O[C@@H]3/C=C/C(=O)O1)C[C@H](O)[C@H]2C(=O)O` [Natamycin, natamycin]?
A: Observed antifungal activity O (%) [1]: 35%; Observed antifungal activity O (%) [2, 3]: 23%; Observed antifungal activity O (%) [2, 4]: 23%; Observed antifungal activity O (%) [2, 5]: 18%; Observed antifungal activity O (%) [2, 6]: 13%; Observed antifungal activity O (%) [2, 7]: 4.8%; Observed antifungal activity O (%) [2, 8]: 4.8%; Observed antifungal activity O (%) [2, 9]: 1.2%; Observed antifungal activity O (%) [2, 10]: 1.2%; Observed antifungal activity O (%) [2, 11]: 1.2%; Observed antifungal activity O (%) [2, 12]: 0%; Observed antifungal activity O (%) [2, 13]: 0%; Observed antifungal activity O (%) [2, 14]: 0%; Observed antifungal activity O (%) [2, 15]: 0%; Number of moulded strawberries/total number of 12 strawberries [2, 16]: 11 and 11/12; Number of moulded strawberries/total number of 12 strawberries [2, 17]: 11 and 11/12; Number of moulded strawberries/total number of 12 strawberries [2, 18]: 12 and 12/12; Number of moulded strawberries/total number of 12 strawberries [2, 19]: 12 and 12/12; Number of moulded strawberries/total number of 12 strawberries [2, 20]: 12 and 12/12; Number of moulded strawberries/total number of 12 strawberries [2, 21]: 12 and 12/12; Number of moulded strawberries/total number of 12 strawberries [2, 22]: 12 and 12/12; Number of moulded strawberries/total number of 12 strawberries [2, 23]: 12 and 12/12; Observed antifungal activity O (%) [2, 24]: 11%; Observed antifungal activity O (%) [2, 25]: 14%; Observed antifungal activity O (%) [2, 26]: 4.8%; Observed antifungal activity O (%) [2, 27]: 2.4%; Observed antifungal activity O (%) [2, 28]: 2.4%; Observed antifungal activity O (%) [2, 29]: 0%; Observed antifungal activity O (%) [2, 30]: 0%; Observed antifungal activity O (%) [2, 31]: 0%; Observed antifungal activity O (%) [2, 32]: 0%; Observed antifungal activity O (%) [2, 33]: 0%; Observed antifungal activity O (%) [2, 34]: 0%; Observed antifungal activity O (%) [2, 35]: 0%; Number of moulded strawberries/total number of 12 strawberries [2, 36]: 12 and 12/12; Number of moulded strawberries/total number of 12 strawberries [2, 37]: 12 and 12/12; Number of moulded strawberries/total number of 12 strawberries [2, 38]: 12 and 12/12; Number of moulded strawberries/total number of 12 strawberries [2, 39]: 12 and 12/12; Number of moulded strawberries/total number of 12 strawberries [2, 40]: 12 and 12/12; Number of moulded strawberries/total number of 12 strawberries [2, 41]: 12 and 12/12; Number of moulded strawberries/total number of 12 strawberries [2, 42]: 12 and 12/12; Number of moulded strawberries/total number of 12 strawberries [2, 43]: 12 and 12/12; Number of moulded strawberries/total number of 12 strawberries [2, 44]: 12 and 12/12

Q: What does the source list for `N#Cc1c[nH]cc1-c1cccc2c1OC(F)(F)O2` [Fludioxonil, fludioxonil]?
A: Observed antifungal activity O (%) [1]: 90%; Observed antifungal activity O (%) [2, 3]: 89%; Observed antifungal activity O (%) [2, 4]: 81%; Observed antifungal activity O (%) [2, 5]: 81%; Observed antifungal activity O (%) [2, 6]: 69%; Observed antifungal activity O (%) [2, 7]: 55%; Observed antifungal activity O (%) [2, 8]: 44%; Observed antifungal activity O (%) [2, 9]: 32%; Observed antifungal activity O (%) [2, 10]: 26%; Observed antifungal activity O (%) [2, 11]: 19%; Observed antifungal activity O (%) [2, 12]: 11%; Observed antifungal activity O (%) [2, 13]: 6.0%; Observed antifungal activity O (%) [2, 14]: 1.2%; Observed antifungal activity O (%) [2, 15]: 0%; Number of moulded strawberries/total number of 12 strawberries [2, 16]: 5 and 5/12; Number of moulded strawberries/total number of 12 strawberries [2, 17]: 8 and 8/12; Number of moulded strawberries/total number of 12 strawberries [2, 18]: 9 and 9/12; Number of moulded strawberries/total number of 12 strawberries [2, 19]: 10 and 10/12; Number of moulded strawberries/total number of 12 strawberries [2, 20]: 12 and 12/12; Number of moulded strawberries/total number of 12 strawberries [2, 21]: 12 and 12/12; Number of moulded strawberries/total number of 12 strawberries [2, 22]: 12 and 12/12; Number of moulded strawberries/total number of 12 strawberries [2, 23]: 12 and 12/12; Observed antifungal activity O (%) [2, 24]: 90%; Observed antifungal activity O (%) [2, 25]: 80%; Observed antifungal activity O (%) [2, 26]: 67%; Observed antifungal activity O (%) [2, 27]: 56%; Observed antifungal activity O (%) [2, 28]: 52%; Observed antifungal activity O (%) [2, 29]: 44%; Observed antifungal activity O (%) [2, 30]: 33%; Observed antifungal activity O (%) [2, 31]: 24%; Observed antifungal activity O (%) [2, 32]: 17%; Observed antifungal activity O (%) [2, 33]: 13%; Observed antifungal activity O (%) [2, 34]: 4.8%; Observed antifungal activity O (%) [2, 35]: 3.6%; Number of moulded strawberries/total number of 12 strawberries [2, 36]: 3 and 3/12; Number of moulded strawberries/total number of 12 strawberries [2, 37]: 5 and 5/12; Number of moulded strawberries/total number of 12 strawberries [2, 38]: 8 and 8/12; Number of moulded strawberries/total number of 12 strawberries [2, 39]: 9 and 9/12; Number of moulded strawberries/total number of 12 strawberries [2, 40]: 9 and 9/12; Number of moulded strawberries/total number of 12 strawberries [2, 41]: 11 and 11/12; Number of moulded strawberries/total number of 12 strawberries [2, 42]: 12 and 12/12; Number of moulded strawberries/total number of 12 strawberries [2, 43]: 12 and 12/12; Number of moulded strawberries/total number of 12 strawberries [2, 44]: 12 and 12/12
